The values below come from publication PMC12005739, “Disruption of the eEF1A1/ARID3A/PKC‐δ Complex by Neferine Inhibits Macrophage Glycolytic Reprogramming in Atherosclerosis” (Advanced Science, 2025).

Experiment [1] deals with T1, eEF1A1 (RAW264.7 macrophages) (Mus musculus, UniProt P10126).
T1 construct: endogenous protein in RAW264.7 cells or lysate, about 50 kDa band, identified by LC-MS/MS and Western blot
T1 sequence (P10126 2-462): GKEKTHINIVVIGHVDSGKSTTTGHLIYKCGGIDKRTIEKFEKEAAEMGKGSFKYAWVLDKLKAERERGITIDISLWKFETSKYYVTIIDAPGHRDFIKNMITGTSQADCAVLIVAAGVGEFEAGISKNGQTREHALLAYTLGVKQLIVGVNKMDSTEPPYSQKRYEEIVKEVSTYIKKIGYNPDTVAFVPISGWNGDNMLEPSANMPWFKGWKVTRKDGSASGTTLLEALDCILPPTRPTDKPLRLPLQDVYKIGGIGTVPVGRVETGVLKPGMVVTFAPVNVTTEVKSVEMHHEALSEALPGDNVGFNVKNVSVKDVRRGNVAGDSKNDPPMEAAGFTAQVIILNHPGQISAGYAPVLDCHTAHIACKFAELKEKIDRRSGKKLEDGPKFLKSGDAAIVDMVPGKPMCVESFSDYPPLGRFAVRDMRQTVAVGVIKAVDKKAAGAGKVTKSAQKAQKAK
The experiment in a line: CETSA and DARTS with Western blot; competition of probe pull-down. In kind it is biochemical. Particulars: RAW264.7 lysate or cells; Nef 200 µM (CETSA methods) or 10 µM (figure legend); DARTS 2.5-10 µM with pronase.

Experiment [2] addresses T2, eEF1A1 (recombinant human eEF1A1) (Homo sapiens, UniProt P68104).
T2 sequence (P68104 1-462): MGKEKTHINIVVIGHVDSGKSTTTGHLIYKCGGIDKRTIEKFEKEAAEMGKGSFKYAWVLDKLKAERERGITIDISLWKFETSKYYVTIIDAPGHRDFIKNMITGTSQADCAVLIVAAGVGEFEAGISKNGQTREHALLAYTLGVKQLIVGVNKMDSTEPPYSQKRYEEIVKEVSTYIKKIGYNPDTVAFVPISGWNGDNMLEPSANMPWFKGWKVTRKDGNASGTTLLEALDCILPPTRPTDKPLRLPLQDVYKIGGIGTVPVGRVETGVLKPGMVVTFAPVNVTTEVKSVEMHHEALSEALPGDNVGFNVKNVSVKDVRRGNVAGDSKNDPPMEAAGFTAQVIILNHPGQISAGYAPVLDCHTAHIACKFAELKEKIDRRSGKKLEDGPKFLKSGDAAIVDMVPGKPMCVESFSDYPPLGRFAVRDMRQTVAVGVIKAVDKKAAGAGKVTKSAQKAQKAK
The experiment is described as follows: isothermal titration calorimetry (MicroCal PEAQ-ITC). Format: binding. An excerpt: isothermal titration calorimetry (MicroCal PEAQ-ITC) on eEF1A1 (recombinant human eEF1A1) | ITC assay confirmed the affinity of Nef to eEF1A1 with the affinity constant of […]
(Isothermal titration calorimetry measures the heat released or taken up as one component is titrated into another.)

Turning to `COc1ccc(C[C@@H]2c3cc(Oc4cc(C[C@@H]5c6cc(OC)c(OC)cc6CCN5C)ccc4O)c(OC)cc3CCN2C)cc1` [neferine], in experiment [1], the “CETSA and DARTS with Western blot; competition of probe pull-down” value is on record as “Nef administration protected the eEF1A1 protein from temperature‐dependent degradation in cell lysis”. The Kd in experiment [2] worked out at 4.83 µM.

In general, Kd refers to the constant that tells how readily two partners part at equilibrium.
